Data published in ChEMBL document CHEMBL3045602, “Synthesis and antimicrobial activity of novel derivatives of Biginelli pyrimidines” (2012).
≈ marks a conversion by molar mass, not a printed value.

Columns and labels:
Assay type in all cases: functional
[1] = system: Pseudomonas aeruginosa; assay: Antimicrobial activity against Pseudomonas aeruginosa PTCC 1074 after 24 hr by Alamar blue assay; settings: PTCC 1074, 24 h
[2] = system: Aspergillus niger; assay: Antimicrobial activity against Aspergillus niger 5021 after 24 hr by Alamar blue assay; settings: Aspergillus niger, 5021, 24 h
[3] = system: Listeria monocytogenes; assay: Antimicrobial activity against Listeria monocytogenes PTCC 1165 after 24 hr by Alamar blue assay; settings: PTCC 1165, 24 h
[4] = system: Staphylococcus aureus; assay: Antimicrobial activity against Staphylococcus aureus PTCC 1337 after 24 hr by Alamar blue assay; settings: PTCC 1337, 24 h
[5] = system: Bacillus subtilis; assay: Antimicrobial activity against Bacillus subtilis PTCC 1023 after 24 hr by Alamar blue assay; settings: PTCC 1023, 24 h
[6] = system: Escherichia coli; assay: Antimicrobial activity against Escherichia coli PTCC 1338 after 24 hr by Alamar blue assay; settings: PTCC 1338, 24 h
[7] = system: Salmonella enteritidis; assay: Antimicrobial activity against Salmonella enterica subsp. enterica serovar Enteritidis PTCC 1091 after 24 hr by Alamar blue assay; settings: PTCC 1091, 24 h
[8] = system: Candida albicans; assay: Antimicrobial activity against Candida albicans PTCC 5027 after 24 hr by Alamar blue assay; settings: PTCC 5027, 24 h

| Compound | MIC [1] [µg/mL] | MIC [2] [µg/mL] | MIC [3] [µg/mL] | MIC [4] [µg/mL] | MIC [5] [µg/mL] | MIC [6] [µg/mL] | MIC [7] [µg/mL] | MIC [8] [µg/mL] |
| --- | --- | --- | --- | --- | --- | --- | --- | --- |
| CC1=C(C(=O)OCC(C)C)C(c2cccs2)NC(S)=N1 (configuration not stated) | > 512 | > 512 | 512 (≈ 1650 µM) | 512 (≈ 1650 µM) | > 512 | 512 (≈ 1650 µM) | > 512 | > 512 |
| CC1=C(C(=O)OC(C)C)C(c2cccs2)NC(S)=N1 (configuration not stated) | > 512 | > 512 | > 512 | > 512 | > 512 | > 512 | > 512 | > 512 |
| CSc1ncc(C2NC(=O)NC(C)=C2C(=O)Nc2ccc(Cl)cc2)n1Nc1ccccc1 (configuration not stated) | > 512 | 64 (≈ 136 µM) | > 512 | > 512 | > 512 | 512 (≈ 1090 µM) | 512 (≈ 1090 µM) | 32 (≈ 68.2 µM) |
| CSc1ncc(C2NC(=O)NC(C)=C2C(=O)Nc2ccccn2)n1Nc1ccccc1 (configuration not stated) | > 512 | 64 (≈ 147 µM) | > 512 | > 512 | > 512 | > 512 | > 512 | 32 (≈ 73.5 µM) |
| CSc1ncc(C2NC(=O)NC(C)=C2C(=O)Nc2cccnc2)n1Nc1ccccc1 (configuration not stated) | 512 (≈ 1180 µM) | 64 (≈ 147 µM) | > 512 | > 512 | > 512 | 512 (≈ 1180 µM) | > 512 | 32 (≈ 73.5 µM) |
| CC1=C(C(=O)Nc2ccccc2Cl)C(c2cccs2)NC(=O)N1 (configuration not stated) | > 512 | > 512 | 256 (≈ 736 µM) | 512 (≈ 1470 µM) | 256 (≈ 736 µM) | > 512 | > 512 | > 512 |
| CC1=C(C(=O)Nc2cccc(Cl)c2)C(c2cccs2)NC(=O)N1 (configuration not stated) | > 512 | > 512 | 256 (≈ 736 µM) | 512 (≈ 1470 µM) | 512 (≈ 1470 µM) | > 512 | > 512 | > 512 |
| CC1=C(C(=O)Nc2ccc(Cl)cc2)C(c2cccs2)NC(=O)N1 (configuration not stated) | 512 (≈ 1470 µM) | > 512 | 512 (≈ 1470 µM) | 256 (≈ 736 µM) | 512 (≈ 1470 µM) | > 512 | 512 (≈ 1470 µM) | > 512 |
| CC1=C(C(=O)Nc2ccccn2)C(c2cccs2)NC(=O)N1 (configuration not stated) | 512 (≈ 1630 µM) | > 512 | 512 (≈ 1630 µM) | 512 (≈ 1630 µM) | > 512 | > 512 | 512 (≈ 1630 µM) | > 512 |
| CC1=C(C(=O)Nc2cccnc2)C(c2cccs2)NC(=O)N1 (configuration not stated) | 512 (≈ 1630 µM) | > 512 | 512 (≈ 1630 µM) | > 512 | > 512 | > 512 | 512 (≈ 1630 µM) | > 512 |
| COC(=O)C1=C(C)NC(=O)NC1c1cnc(SC)n1Cc1ccccc1 (configuration not stated) | 512 (≈ 1370 µM) | 256 (≈ 687 µM) | > 512 | 512 (≈ 1370 µM) | 512 (≈ 1370 µM) | 512 (≈ 1370 µM) | > 512 | 256 (≈ 687 µM) |
| CCOC(=O)C1=C(C)NC(=O)NC1c1cnc(SC)n1Cc1ccccc1 (configuration not stated) | 256 (≈ 662 µM) | 64 (≈ 166 µM) | 512 (≈ 1320 µM) | > 512 | 512 (≈ 1320 µM) | 256 (≈ 662 µM) | 512 (≈ 1320 µM) | 64 (≈ 166 µM) |
| COC(=O)C1=C(C)NC(=O)NC1c1cnc(SC)n1Nc1ccccc1 (configuration not stated) | 256 (≈ 686 µM) | 128 (≈ 343 µM) | > 512 | > 512 | > 512 | 512 (≈ 1370 µM) | 512 (≈ 1370 µM) | 128 (≈ 343 µM) |
| CCOC(=O)C1=C(C)NC(=O)NC1c1cnc(SC)n1Nc1ccccc1 (configuration not stated) | 128 (≈ 330 µM) | 128 (≈ 330 µM) | > 512 | > 512 | > 512 | 256 (≈ 661 µM) | 512 (≈ 1320 µM) | 64 (≈ 165 µM) |
| CCCCOC(=O)C1=C(C)NC(=S)NC1c1cccs1 (configuration not stated) | 512 (≈ 1650 µM) | > 512 | 512 (≈ 1650 µM) | 512 (≈ 1650 µM) | 512 (≈ 1650 µM) | 256 (≈ 825 µM) | > 512 | > 512 |
| CSc1ncc(C2NC(=O)NC(C)=C2C(=O)Nc2ccccc2Cl)n1Cc1ccccc1 (configuration not stated) | 512 (≈ 1090 µM) | 256 (≈ 547 µM) | > 512 | > 512 | > 512 | 512 (≈ 1090 µM) | > 512 | 256 (≈ 547 µM) |
| CSc1ncc(C2NC(=O)NC(C)=C2C(=O)Nc2cccc(Cl)c2)n1Cc1ccccc1 (configuration not stated) | 256 (≈ 547 µM) | 128 (≈ 274 µM) | > 512 | 128 (≈ 274 µM) | 256 (≈ 547 µM) | > 512 | 256 (≈ 547 µM) | 256 (≈ 547 µM) |
| CSc1ncc(C2NC(=O)NC(C)=C2C(=O)Nc2ccc(Cl)cc2)n1Cc1ccccc1 (configuration not stated) | 256 (≈ 547 µM) | 256 (≈ 547 µM) | > 512 | 256 (≈ 547 µM) | > 512 | 256 (≈ 547 µM) | > 512 | 256 (≈ 547 µM) |
| CSc1ncc(C2NC(=O)NC(C)=C2C(=O)Nc2ccccn2)n1Cc1ccccc1 (configuration not stated) | 256 (≈ 589 µM) | 128 (≈ 295 µM) | > 512 | > 512 | > 512 | 256 (≈ 589 µM) | > 512 | 64 (≈ 147 µM) |
| CSc1ncc(C2NC(=O)NC(C)=C2C(=O)Nc2cccnc2)n1Cc1ccccc1 (configuration not stated) | 256 (≈ 589 µM) | 128 (≈ 295 µM) | > 512 | 512 (≈ 1180 µM) | 512 (≈ 1180 µM) | 256 (≈ 589 µM) | 512 (≈ 1180 µM) | 128 (≈ 295 µM) |
| CSc1ncc(C2NC(=O)NC(C)=C2C(=O)Nc2ccccc2Cl)n1Nc1ccccc1 (configuration not stated) | 256 (≈ 546 µM) | 128 (≈ 273 µM) | > 512 | > 512 | > 512 | 256 (≈ 546 µM) | > 512 | 128 (≈ 273 µM) |
| CSc1ncc(C2NC(=O)NC(C)=C2C(=O)Nc2cccc(Cl)c2)n1Nc1ccccc1 (configuration not stated) | 512 (≈ 1090 µM) | 128 (≈ 273 µM) | > 512 | > 512 | > 512 | > 512 | > 512 | 128 (≈ 273 µM) |
| O=C(O)c1cn(C2CC2)c2cc(N3CCNCC3)c(F)cc2c1=O [CIPROFLOXACIN] |  |  | 1 (≈ 3.02 µM) | 0.5 (≈ 1.51 µM) | 0.06 (≈ 0.181 µM) |  | 1 (≈ 3.02 µM) |  |
| CC(=O)N1CCN(c2ccc(OCC3COC(Cn4ccnc4)(c4ccc(Cl)cc4Cl)O3)cc2)CC1 (configuration not stated) [KETOCONAZOLE] |  | 4 (≈ 7.53 µM) |  |  |  |  |  | 2 (≈ 3.76 µM) |
